# According to ChEMBL document CHEMBL4419164, “Methods and compositions for inhibiting cnksr1” (2018):
# The source made the active and inactive calls. The rule behind the calls is not given here.
# What was measured:
# [1] = Terminal half life in iv dosed mouse; format: ADME, organism-based; details: in vivo, read-out: beta t1/2
# NCI-H2122 = assay: Growth inhibition of human NCI-H2122 cells relative to control; format: functional, cell-based
# A549 = assay: Growth inhibition of human A549 cells relative to control; format: functional, cell-based
# [2] = biological target: T1, Connector enhancer of kinase suppressor of ras 1 (Homo sapiens) (UniProt Q969H4); assay: Inhibition of CNKSR1 PH-domain (unknown origin) assessed as reduction in c-RAF Ser338 phosphorylation at 25 to 50 uM by cell based Western blot analysis
# T1 sequence (whole entry): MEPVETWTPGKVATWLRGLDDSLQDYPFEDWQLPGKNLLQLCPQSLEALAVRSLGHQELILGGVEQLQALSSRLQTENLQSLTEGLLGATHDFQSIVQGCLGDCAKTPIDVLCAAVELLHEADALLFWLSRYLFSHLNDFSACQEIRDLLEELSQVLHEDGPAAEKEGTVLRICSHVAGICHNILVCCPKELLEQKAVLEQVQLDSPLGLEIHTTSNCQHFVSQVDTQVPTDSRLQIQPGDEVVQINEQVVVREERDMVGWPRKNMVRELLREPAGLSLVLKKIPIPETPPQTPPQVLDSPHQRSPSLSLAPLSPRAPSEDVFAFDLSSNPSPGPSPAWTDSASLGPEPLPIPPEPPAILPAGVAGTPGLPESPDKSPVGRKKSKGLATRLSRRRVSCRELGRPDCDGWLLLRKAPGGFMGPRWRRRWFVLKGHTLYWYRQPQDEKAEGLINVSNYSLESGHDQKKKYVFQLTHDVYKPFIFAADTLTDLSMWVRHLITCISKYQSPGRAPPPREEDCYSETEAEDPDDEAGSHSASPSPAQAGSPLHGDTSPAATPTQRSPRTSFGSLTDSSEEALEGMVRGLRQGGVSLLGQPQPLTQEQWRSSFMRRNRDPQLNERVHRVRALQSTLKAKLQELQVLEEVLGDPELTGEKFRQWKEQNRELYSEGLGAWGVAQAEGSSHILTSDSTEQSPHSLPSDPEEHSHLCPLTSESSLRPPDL
# [3] = Toxicity in SCID mouse xenografted with human NCI-H2122 cells assessed as induction of observable toxic effects at 200 mg/kg/day dosed via gavage daily for 20 days; format: organism-based; details: in vivo, po, 480 h
# [4] = Plasma concentration in C57BL6 mouse at 250 mg/kg, po dosed via gavage as single administration; format: ADME, organism-based; details: in vivo
# [5] = Half life in C57BL6 mouse at 250 mg/kg, po dosed via gavage as single administration; format: ADME, organism-based; details: in vivo
# HCC95 = assay: Growth inhibition of human HCC95 cells incubated for 3 days; format: functional, cell-based; details: HCC95, 72 h
# [6] = Growth inhibition of human […] cells incubated for 3 days; format: functional; details: 72 h
# HCC515 = assay: Growth inhibition of human HCC515 cells incubated for 3 days; format: functional, cell-based; details: HCC515, 72 h
# [7] = Half life in mouse plasma at 50 ug/ml at 37 degC at pH 7.4; format: ADME, cell-free
# [8] = Half life in 10% fetal bovine serum at 50 ug/ml at 37 degC at pH 7.4; format: ADME, cell-free, Bos taurus; details: cattle
# [9] = biological target: T2, carboxylesterase 2 (cocaine esterase) (Homo sapiens, UniProt O00748); assay: Stability assessed as recombinant human carboxyesterase-2 mediated compound hydrolysis by measuring half life at 50 ug/ml at 37 degC at pH 7.4; format: ADME; details: recombinant human carboxylesterase-2, pH 7.4
# T2 sequence (O00748 whole entry): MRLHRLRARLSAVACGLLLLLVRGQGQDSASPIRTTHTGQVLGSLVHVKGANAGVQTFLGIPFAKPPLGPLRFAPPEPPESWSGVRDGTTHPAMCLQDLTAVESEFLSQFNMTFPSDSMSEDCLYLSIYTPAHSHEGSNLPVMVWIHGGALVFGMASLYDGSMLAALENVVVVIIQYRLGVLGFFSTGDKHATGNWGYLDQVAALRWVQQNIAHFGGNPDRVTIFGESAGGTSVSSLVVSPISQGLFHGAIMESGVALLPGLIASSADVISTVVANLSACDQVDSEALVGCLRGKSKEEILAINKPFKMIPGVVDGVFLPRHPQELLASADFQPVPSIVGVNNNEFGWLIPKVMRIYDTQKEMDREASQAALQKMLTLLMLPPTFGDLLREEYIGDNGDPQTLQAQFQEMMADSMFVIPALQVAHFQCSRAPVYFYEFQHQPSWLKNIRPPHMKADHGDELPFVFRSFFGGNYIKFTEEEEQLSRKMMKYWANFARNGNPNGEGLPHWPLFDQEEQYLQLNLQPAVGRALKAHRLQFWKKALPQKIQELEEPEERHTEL
# [10] = biological target: T1, Connector enhancer of kinase suppressor of ras 1 (Homo sapiens); assay: Inhibition of GFP-tagged CNKSR1 (unknown origin) expressed in HEK293T cells assessed as inhibition of direct binding of CNKSR1 to mut-KRAS at 50 uM incubated for 4 hrs by fluorescence lifetime imaging microscopy; format: cell-based
# [11] = biological target: T1, Connector enhancer of kinase suppressor of ras 1 (Homo sapiens); assay: Inhibition of CNKSR1 (unknown origin) assessed as reduction in inhibition of KRas signaling effectors by measuring GTP-RalA levels at 20 uM by cell based assay
smiles,measurement,setting,value
CCOC(=O)Cc1nn(Cc2nc(-c3ccc(C)cc3)cs2)c(=O)c2ccccc12,half-life,[1],3 min
same,growth inhibition (GI),NCI-H2122,Active
same,growth inhibition (GI),A549,Active
same,inhibition,[2],Active
same,Activity,[3],Non-Toxic
same,concentration,[4],7 µM
same,half-life,[5],360 min
same,IC50,HCC95,> 100 µM
same,IC50,[6],51 µM
same,IC50,HCC515,70 µM
same,half-life at 50 ug/ml,[7],6.3 min
same,half-life at 50 ug/ml,[8],790 min
same,half-life at 50 ug/ml,[9],99 min
same,inhibition,[10],Active
same,inhibition,[11],Active
